Laboratory results reported in patent publication US11370774B2, “Substituted benzofuran, benzopyrrole, benzothiophene, and structurally related complement inhibitors” (BioCryst Pharmaceuticals, Inc., priority 2018, dated 2022).

target: Factor D (Homo sapiens (Human), UniProt P00746); test: Factor D esterolytic assay (Z-Lys-SBzl substrate, DTNB, 405 nm); type: biochemical; conditions: Z-Lys-SBzl 1.29 mM, pH 7.5, 10% DMSO, tested a minimum of three times, read-out: Measured Ki (IC50) Value for Compounds: IC50
Sequence (P00746 26-253): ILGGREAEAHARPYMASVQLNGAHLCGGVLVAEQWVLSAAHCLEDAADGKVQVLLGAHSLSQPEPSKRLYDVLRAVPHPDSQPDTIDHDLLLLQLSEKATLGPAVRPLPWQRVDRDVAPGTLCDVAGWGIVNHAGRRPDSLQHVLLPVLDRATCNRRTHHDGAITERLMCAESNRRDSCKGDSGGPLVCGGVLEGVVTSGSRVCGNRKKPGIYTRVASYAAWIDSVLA
In short: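 Human Factor D ([…]) with 1.29 mM Z-Lys-SBzl in 100 mM HEPES, 500 mM NaCl, pH 7.5, 10% DMSO; substrate added immediately or after room-temperature preincubation. Released thiol reacted with DTNB, rate followed at 405 nm for 600 sec, 690 nm background subtracted. IC50 from percent inhibition versus uninhibited rate, n≥3.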

Row | Compound | IC50
1 | NCc1cc(F)cc(-c2cc(COc3ccccc3CC(=O)O)cc3ccoc23)c1 [Compound 73c, 2-(2-((7-(3-(aminomethyl)-5-fluorophenyl)benzofuran-5-yl)methoxy)phenyl)acetic acid] | < 1000 nM
2 | NCc1cc(-c2cc(COc3ccccc3CC(=O)O)cc3ccoc23)ccn1 [Compound 74c, 2-(2-((7-(2-(aminomethyl)pyridin-4-yl)benzofuran-5-yl)methoxy)phenyl)acetic acid] | < 1000 nM
3 | NCc1c(F)ccc(-c2cc(COc3ccccc3CC(=O)O)cc3ccoc23)c1F [Compound 75c, 2-(2-((7-(3-(aminomethyl)-2,4-difluorophenyl)benzofuran-5-yl)methoxy)phenyl)acetic acid] | < 1000 nM
4 | NCc1cccc(-c2cc(COc3ccccc3CC(=O)O)cc3cc(CO)oc23)c1 [Compound 76f, 2-(2-((7-(3-(aminomethyl)phenyl)-2-(hydroxymethyl)benzofuran-5-yl)methoxy)phenyl)acetic acid] | < 1000 nM
5 | N[C@H](CO)c1cc(-c2cc(COc3ccccc3CC(=O)O)cc3ccoc23)ccn1 [Compound 77c, (S)-2-(2-((7-(2-(1-amino-2-hydroxyethyl)pyridin-4-yl)benzofuran-5-yl)methoxy)phenyl)acetic acid] | < 1000 nM
6 | C[C@@H](N)c1cccc(-c2cc(COc3ccccc3CC(=O)O)cc3ccoc23)c1 [Compound 78c, (R)-2-(2-((7-(3-(1-aminoethyl)phenyl)benzofuran-5-yl)methoxy)phenyl)acetic acid] | < 1000 nM
7 | NCc1cccc(-c2cc(COc3ccccc3CC(=O)O)cc3ccoc23)n1 [Compound 79c, 2-(2-((7-(6-(aminomethyl)pyridin-2-yl)benzofuran-5-yl)methoxy)phenyl)acetic acid] | < 1000 nM
8 | NCc1nccc(-c2cc(COc3ccccc3CC(=O)O)cc3ccoc23)c1F [Compound 80e, 2-(2-((7-(2-(aminomethyl)-3-fluoropyridin-4-yl)benzofuran-5-yl)methoxy)phenyl)acetic acid] | < 1000 nM
9 | Cc1c[nH]c2cc(C(=O)Nc3ccccc3CC(=O)O)cc(-c3cccc(CN)c3)c12 [Compound 81d, 2-(2-(4-(3-(aminomethyl)phenyl)-3-methyl-1H-indole-6-carboxamido)phenyl)acetic acid] | > 10000 nM
10 | NCc1cccc(-c2cc(COc3ccccc3CC(=O)O)cc3cc(C4CCCC4)oc23)c1 [Compound 82f, 2-(2-((7-(3-(aminomethyl)phenyl)-2-cyclopentylbenzofuran-5-yl)methoxy)phenyl)acetic acid] | < 1000 nM
11 | NCc1cccc(-c2nc(C(=O)Nc3ccccc3CC(=O)O)cc3[nH]ccc23)c1 [Compound 83h, 2-(2-(4-(3-(aminomethyl)phenyl)-1H-pyrrolo[3,2-c]pyridine-6-carboxamido)phenyl)acetic acid] | < 1000 nM
12 | Cc1cc2cc(COc3ccccc3CC(=O)O)cc(-c3cccc(CN)c3)c2o1 [Compound 84f, 2-(2-((7-(3-(aminomethyl)phenyl)-2-methylbenzofuran-5-yl)methoxy)phenyl)acetic acid] | < 1000 nM
13 | N=C(N)c1cccc(-c2cc(COc3ccccc3CC(=O)O)cc3ccoc23)c1 [Compound 85c, 2-(2-((7-(3-carbamimidoylphenyl)benzofuran-5-yl)methoxy)phenyl)acetic acid] | < 1000 nM
14 | NC(=O)c1cccc(-c2cc(COc3ccccc3CC(=O)O)cc3ccoc23)c1 [Compound 85d, 2-(2-((7-(3-carbamoylphenyl)benzofuran-5-yl)methoxy)phenyl)acetic acid] | 1000 to 10000 nM
15 | NCc1cccc(-c2cc(COc3ccccc3CC(=O)O)nc3[nH]ccc23)c1F [Compound 86b, 2-(2-((4-(3-(aminomethyl)-2-fluorophenyl)-1H-pyrrolo[2,3-b]pyridin-6-yl)methoxy)phenyl)acetic acid] | < 1000 nM
16 | Nc1nccc2ccc(-c3cc(COc4ccccc4CC(=O)O)cc4ccoc34)cc12 [Compound 87c, 2-(2-((7-(1-aminoisoquinolin-7-yl)benzofuran-5-yl)methoxy)phenyl)acetic acid] | > 10000 nM
17 | NCc1cccc(-c2cc(COc3ccccc3CC(=O)O)cc3cc(C4CC4)oc23)c1F [Compound 88b, 2-(2-((7-(3-(aminomethyl)-2-fluorophenyl)-2-cyclopropylbenzofuran-5-yl)methoxy)phenyl)acetic acid] | < 1000 nM
18 | Cc1cc(CN)cc(-c2cc(COc3ccccc3CC(=O)O)cc3ccoc23)c1 [Compound 89c, 2-(2-((7-(3-(aminomethyl)-5-methylphenyl)benzofuran-5-yl)methoxy)phenyl)acetic acid] | < 1000 nM
19 | NCc1nccc(-c2cc(COc3ccc(F)cc3CC(=O)O)cc3ccoc23)c1F [Compound 90d, 2-(2-((7-(2-(aminomethyl)-3-fluoropyridin-4-yl)benzofuran-5-yl)methoxy)-5-fluorophenyl)acetic acid] | < 1000 nM

Row | Compound | IC50
20 | Cc1nc2cc(COc3ccccc3CC(=O)O)cc(-c3cccc(CN)c3)c2o1 [Compound 91h, 2-(2-((7-(3-(aminomethyl)phenyl)-2-methylbenzo[d]oxazol-5-yl)methoxy)phenyl)acetic acid] | < 1000 nM
21 | Cc1cc2cc(COc3ccccc3CC(=O)O)cc(-c3cccc(CN)c3F)c2o1 [Compound 92b, 2-(2-((7-(3-(aminomethyl)-2-fluorophenyl)-2-methylbenzofuran-5-yl)methoxy)phenyl)acetic acid] | < 1000 nM
22 | NCc1cccc(-c2cn3cccc3c(C(=O)Nc3ccccc3CC(=O)O)n2)c1 [Compound 93h, 2-(2-(3-(3-(aminomethyl)phenyl)pyrrolo[1,2-a]pyrazine-1-carboxamido)phenyl)acetic acid] | < 1000 nM
23 | NCc1cccc(-c2cc(COc3ccccc3CC(=O)O)cc3cc(CO)oc23)c1F [Compound 94c, 2-(2-((7-(3-(aminomethyl)-2-fluorophenyl)-2-(hydroxymethyl)benzofuran-5-yl)methoxy)phenyl)acetic acid] | < 1000 nM
24 | NCCc1cccc(-c2cc(COc3ccccc3CC(=O)O)cc3ccoc23)c1 [Compound 95c, 2-(2-((7-(3-(2-aminoethyl)phenyl)benzofuran-5-yl)methoxy)phenyl)acetic acid] | < 1000 nM
25 | COCc1cc2cc(COc3ccccc3CC(=O)O)cc(-c3cccc(CN)c3)c2o1 [Compound 96e, 2-(2-((7-(3-(aminomethyl)phenyl)-2-(methoxymethyl)benzofuran-5-yl)methoxy)phenyl)acetic acid] | < 1000 nM
26 | Cn1ccc2c(-c3cccc(CN)c3F)cc(COc3ccccc3CC(=O)O)cc21 [Compound 97b, 2-(2-((4-(3-(aminomethyl)-2-fluorophenyl)-1-methyl-1H-indol-6-yl)methoxy)phenyl)acetic acid] | < 1000 nM
27 | CC(O)c1cc2cc(COc3ccccc3CC(=O)O)cc(-c3cccc(CN)c3)c2o1 (centres unmarked) [Compound 98e, 2-(2-((7-(3-(aminomethyl)phenyl)-2-(1-hydroxyethyl)benzofuran-5-yl)methoxy)phenyl)acetic acid] | < 1000 nM
28 | COCc1cc2cc(COc3ccccc3CC(=O)O)cc(-c3cccc(CN)c3F)c2o1 [Compound 99b, 2-(2-((7-(3-(aminomethyl)-2-fluorophenyl)-2-(methoxymethyl)benzofuran-5-yl)methoxy)phenyl)acetic acid] | < 1000 nM
29 | CC(N)c1cccc(-c2cc(COc3ccccc3CC(=O)O)cc3ccoc23)n1 (centres unmarked) [Compound 100c, 2-(2-((7-(6-(1-aminoethyl)pyridin-2-yl)benzofuran-5-yl)methoxy)phenyl)acetic acid] | 1000 to 10000 nM
30 | NCc1cccc(-c2cc(COc3ccccc3CC(=O)O)cn3ccnc23)c1 [Compound 102g, 2-(2-((8-(3-(aminomethyl)phenyl)imidazo[1,2-a]pyridin-6-yl)methoxy)phenyl)acetic acid] | < 1000 nM
31 | NCc1cccc(-c2cc(COc3ccccc3CC(=O)O)cc3cc(C(O)C(F)(F)F)oc23)c1 (centres unmarked) [Compound 103d, 2-(2-((7-(3-(aminomethyl)phenyl)-2-(2,2,2-trifluoro-1-hydroxyethyl)benzofuran-5-yl)methoxy)phenyl)acetic acid] | < 1000 nM
32 | CC(C)(O)c1cc2cc(COc3ccccc3CC(=O)O)cc(-c3cccc(CN)c3)c2o1 [Compound 104e, 2-(2-((7-(3-(aminomethyl)phenyl)-2-(2-hydroxypropan-2-yl)benzofuran-5-yl)methoxy)phenyl)acetic acid] | < 1000 nM
33 | NCc1cccc(-c2cc(COc3ccccc3CC(=O)O)cc3cc(C(O)C4CC4)oc23)c1 (centres unmarked) [Compound 105c, 2-(2-((7-(3-(aminomethyl)phenyl)-2-(cyclopropyl(hydroxy)methyl)benzofuran-5-yl)methoxy)phenyl)acetic acid] | < 1000 nM
34 | NCc1cncc(-c2cc(COc3ccccc3CC(=O)O)cc3ccoc23)c1 [Compound 106c, 2-(2-((7-(5-(aminomethyl)pyridin-3-yl)benzofuran-5-yl)methoxy)phenyl)acetic acid] | 1000 to 10000 nM
35 | NCc1cccc(-c2cc(COc3ccccc3CC(=O)O)cc3nccn23)c1 [Compound 107f, 2-(2-((5-(3-(aminomethyl)phenyl)imidazo[1,2-a]pyridin-7-yl)methoxy)phenyl)acetic acid] | < 1000 nM
36 | CC(C)c1cc2cc(COc3ccccc3CC(=O)O)cc(-c3cccc(CN)c3)c2o1 [Compound 108f, 2-(2-((7-(3-(aminomethyl)phenyl)-2-isopropylbenzofuran-5-yl)methoxy)phenyl)acetic acid] | < 1000 nM
37 | CC(C)n1ccc2c(-c3cccc(CN)c3)cc(COc3ccccc3CC(=O)O)cc21 [Compound 109g, 2-(2-((4-(3-(aminomethyl)phenyl)-1-isopropyl-1H-indol-6-yl)methoxy)phenyl)acetic acid] | < 1000 nM
38 | NCc1ccnc(-c2cc(COc3ccccc3CC(=O)O)cc3ccoc23)c1 [Compound 110c, 2-(2-((7-(4-(aminomethyl)pyridin-2-yl)benzofuran-5-yl)methoxy)phenyl)acetic acid] | < 1000 nM
